Assay results published in patent US20120214818A1, “METHODS OF TREATING DIASTOLIC DYSFUNCTION AND RELATED CONDITIONS” (THE BOARD OF TRUSTEES OF THE UNIVERSITY OF ILLINOIS, priority 2009, published 2012).

What was measured:
DOCA-salt and sham mice = experiment: Noninvasive echocardiographic assessment of diastolic dysfunction, acute ranolazine; assay type: in vivo, mouse; conditions: 30 mg/kg ranolazine intraperitoneal; for E/A, early to late diastolic filling velocity / E/E′ / E′, early septal mitral annulus velocity (TDI) / E′/A′ / Sm, systolic septal mitral annulus velocity (TDI): 30 min; for EF, ejection fraction (Table 3) / FS, fractional shortening: echocardiogram 30 min later
Method: Generation of DOCA-salt mouse model: Previously, it was shown that this model leads to mild hypertension, myocardial oxidative stress, and diastolic dysfunction.^20 A gradual and mild elevation in blood pressure was induced by unilateral nephrectomy, subcutaneous implantation of a controlled release deoxycorticosterone acetate (DOCA) pellet (0.7 mg/d; Innovative Research of America, Sarasota, Fla.), and substituting drinking water with 1.05% saline. Control animals underwent a sham operation, had placebo pellet implantation, and received water without salt. Noninvasive assessment of diastolic dysfunction: Mice were anesthetized, maintained at 37° C., and studied by echocardiography (Vevo 770, VisualSonics Inc, Toronto, Canada). M-mode images in the parasternal long axis and the left ventricle (LV) short-axis views at the mid-papillary level. Measurements were averaged from three consecutive beats during expiration. LV inflow velocities (E and A waves) were interrogated by conventional pulsed-wave Doppler from the apical four-chamber view. The mitral annulus longitudinal velocities (Sm, E′, and A′) were determined by pulsed-wave tissue Doppler from the apical four-chamber view. Interpretation was done by two investigators blinded to the treatment groups. First, baseline images were acquired. Subsequently, the mice were injected with 30 mg/kg ranolazine by intraperitoneal route, followed by a second echocardiogram 30 min later. Previously, we have shown that this model leads to mild hypertension, myocardial oxidative stress, and diastolic dysfunction.^20 A gradual and mild elevation in blood pressure was induced by unilateral nephrectomy, subcutaneous implantation of a controlled release deoxycorticosterone acetate (DOCA) pellet (0.7 mg/d; Innovative Research of America, Sarasota, Fla.), and substituting drinking water with 1.05% saline. Control animals underwent a sham operation, had placebo pellet implantation, and received water without salt. Mice were anesthetized, maintained at 37° C., and studied by echocardiography (Vevo 770, VisualSonics Inc, Toronto, Canada). M-mode images in the parasternal long axis and the left ventricle (LV) short-axis views at the mid-papillary level were taken. Measurements were averaged from three consecutive beats during expiration. LV inflow velocities (E and A waves) were interrogated by conventional pulsed-wave Doppler from the apical four-chamber view. The mitral annulus longitudinal velocities (Sm, E′, and A′) were determined by pulsed-wave tissue Doppler from the apical four-chamber view. Interpretation was done by a two investigators blinded to the treatment groups. First, baseline images were acquired. Subsequently to determine the acute effect, the mice were injected with 30 mg/kg ranolazine by intraperitoneal route, followed by a second echocardiogram 30 min later.

[1] = system: isolated ventricular cardiomyocytes from DOCA-salt and sham mice; experiment: Cell shortening (sarcomere shortening and relengthening) of isolated cardiomyocytes; assay type: cell-based, mouse; conditions: for relaxation τ (relaxation time constant): 10 μmol/L ranolazine 10 min
Method: Myocyte isolation: Cardiac ventricular myocytes were isolated from the hearts of DOCA-salt or age matched controls mice 14-18 d post-operatively using a modified enzymatic digestion protocol from the Alliance for Cellular Signaling as previously described.^20 Cell shortening and calcium transient measurements: The mechanical properties of the cardiomyocytes were assessed using an IonOptix Myocam System (Ionoptix Inc., Milton, Mass.). Unloaded cardiomyocytes were placed on a glass slide and allowed to adhere for 10 min. Cardiomyocytes were then imaged with an inverted microscope and perfused with a Tyrode's buffer containing 1.2 mmol/L calcium at room temperature. Cardiomyocytes were paced at 0.5 Hz for 10 ms duration, and sarcomere shortening and relengthening were assessed using the following indices: peak fractional shortening (FS), time to 90% peak shortening, and τ, the relaxation time constant (a0+[…]^t/τ, t=time). Cardiomyocytes were treated with 10 μmol/L ranolazine for 10 min prior to evaluation. For calcium transient measurements, cardiomyocytes were loaded with 1 μmol/L Fura 2-AM for 10 min at room temperature, and fluorescence measurements were recorded with a dual-excitation fluorescence photomultiplier system (IonOptix). After loading, the cells were washed and resuspended in normal Tyrode solution. The cardiomyocytes were placed then in the cell chamber, stimulated at 0.5 Hz for 10 ms duration, and imaged through a Fluor×40 objective lens. Cells were exposed to light emitted by a 75-W Xenon lamp and passed though either a 340- or 380-nm wavelength filter. The emitted fluorescence was detected at 510 nm. To take into account any inference from background fluorescence, the background fluorescence for each cardiomyocyte was determined by moving the cardiomyocyte out of the view and recording the fluorescence from the bath solution alone. The mechanical properties of the cardiomyocytes were assessed using an IonOptix Myocam System (Ionoptix Inc., Milton, Mass.). Unloaded cardiomyocytes were placed on a glass slide and allowed to adhere for 10 min at 37° C. Cardiomyocytes were then imaged with an inverted microscope and perfused with a Tyrode's buffer containing 1.2 mmol/L calcium at room temperature. Cardiomyocytes were paced at 0.5, 1, or 2 Hz for 10 ms duration, and sarcomere shortening and relengthening were assessed using the following indices: peak fractional shortening (FS), time to 90% peak shortening, and τ, the relaxation time constant (a0+[…]^t/τ, t=time). Cardiomyocytes were treated with 10 μmol/L ranolazine for 10 min prior to evaluation. […] For calcium transient measurements, cardiomyocytes were loaded with 1 μmol/L fura 2-AM for 10 min at 37° C., and fluorescence measurements were recorded with a dual-excitation fluorescence photomultiplier system (IonOptix). After loading, the cells were washed and resuspended in normal Tyrode solution. The cardiomyocytes were placed then in the cell chamber, stimulated at 0.5, 1, or 2 Hz for 10 ms duration, and imaged through a Fluor×40 objective lens. Cells were exposed to light emitted by a 75-W Xenon lamp and passed though either a 340- or 380-nm wavelength filter. The emitted fluorescence was detected at 510 nm. To take into account any interference, the background fluorescence for each cardiomyocyte was determined by moving the cardiomyocyte out of the view and recording the fluorescence from the bath solution alone. Myocyte isolation: Cardiac ventricular myocytes were isolated from the hearts of DOCA-salt or age matched controls mice 14-18 d post-operatively using a modified enzymatic digestion protocol from the Alliance for Cellular Signaling as previously described (Silberman et al., Circulation 121: 519-528 (2010)).

[2] = system: dog model of chronic heart failure; conditions: cited from earlier work
[3] = DOCA-salt cardiomyocytes paced at 1 Hz and 2 Hz (FIG. 14)

COc1ccccc1OCC(O)CN1CCN(CC(=O)Nc2c(C)cccc2C)CC1 (stereo not drawn) [ranolazine]
E/A, early to late diastolic filling velocity (DOCA-salt and sham mice; DOCA-salt mice): 1.62 ± 0.11
E/E′ (DOCA-salt and sham mice; DOCA-salt mice): 31.9 ± 2.6
E′, early septal mitral annulus velocity (TDI) (DOCA-salt and sham mice; DOCA-salt mice): 2.47 ± 0.18 cm/s
E′/A′ (DOCA-salt and sham mice; DOCA-salt mice): 1.31 ± 0.11
Sm, systolic septal mitral annulus velocity (TDI) (DOCA-salt and sham mice; DOCA-salt mice): 2.15 ± 0.14 cm/s
EF, ejection fraction (Table 3) (DOCA-salt and sham mice; DOCA-salt mice): 46.9 ± 1.6%
FS, fractional shortening (DOCA-salt and sham mice; DOCA-salt mice): 46.9 ± 1.6%
E/A, early to late diastolic filling velocity (DOCA-salt and sham mice; sham mice): 1.63 ± 0.07
E/E′ (DOCA-salt and sham mice; sham mice): 30.2 ± 1.9
E′, early septal mitral annulus velocity (TDI) (DOCA-salt and sham mice; sham mice): 2.67 ± 0.11 cm/s
E′/A′ (DOCA-salt and sham mice; sham mice): 1.16 ± 0.02
Sm, systolic septal mitral annulus velocity (TDI) (DOCA-salt and sham mice; sham mice): 2.31 ± 0.09 cm/s
EF, ejection fraction (Table 3) (DOCA-salt and sham mice; sham mice): 52.8 ± 0.8 %
FS, fractional shortening (DOCA-salt and sham mice; sham mice): 52.8 ± 0.8%
relaxation time (τ) at 1 and 2 Hz pacing [1, 3]: improved relaxations times at both frequencies
sarcomere length at 1 and 2 Hz pacing [1, 3]: lengthened sarcomere length at both frequencies
relaxation τ (relaxation time constant) ([1]; DOCA-salt cardiomyocytes, 0.5 Hz, 37° C. (Example 7)): 0.13 ± 0.01 s
relaxation τ (relaxation time constant) ([1]; DOCA-salt cardiomyocytes, paced 0.5 Hz, room temperature (Example 3)): 0.08 ± 0.01 s
resting (baseline) sarcomere length ([1]; DOCA-salt cardiomyocytes, 10 μmol/L ranolazine (Example 6)): 1.81±0.01 μm
resting (baseline) sarcomere length ([1]; DOCA-salt cardiomyocytes, 10 μmol/L ranolazine, 37° C. (Example 7)): 1.81±0.01 μm
contraction (fractional shortening, time to 90% peak contraction) ([1]; sham and DOCA-salt cardiomyocytes, 10 μmol/L ranolazine): did not affect contraction
relaxation τ (relaxation time constant) ([1]; sham cardiomyocytes, 0.5 Hz, 37° C. (Example 7)): 0.09 ± 0.02 s
relaxation τ (relaxation time constant) ([1]; sham cardiomyocytes, paced 0.5 Hz, room temperature (Example 3)): 0.07 ± 0.01 s
resting (baseline) sarcomere length ([1]; sham cardiomyocytes, 10 μmol/L ranolazine (Example 6)): 1.82±0.01 μm
resting (baseline) sarcomere length ([1]; sham cardiomyocytes, 10 μmol/L ranolazine, 37° C. (Example 7)): 1.86±0.02 μm
reversibility of the effect on relaxation and sarcomere length ([1]; washout): reversible upon washout
LVEDP [2]: reduces LVEDP
